Laboratory results published in the supplement of paper PMC10307832.

What was measured:
Test in all cases: relative viability (nuclei count vs DMSO), 5 days (fraction); higher = more cells survive
[1] = compound: CC(C)C[C@H](NC(=O)[C@H](CCc1ccccc1)NC(=O)CN1CCOCC1)C(=O)N[C@@H](Cc1ccccc1)C(=O)N[C@@H](CC(C)C)C(=O)[C@@]1(C)CO1 [Carfilzomib] + C[C@@H](Oc1cc(-c2cnn(C3CCNCC3)c2)cnc1N)c1c(Cl)ccc(F)c1Cl [Crizotinib] (partner 1 µM)
Summary of the method: (§1)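 Relative viability was taken as the ratio of nuclei in treated wells to nuclei in vehicle wells. Lung cancer cell lines in 1536-well plates received compounds by pin tool one day after seeding, either one drug alone or a fixed anchor-drug dose plus five library-drug doses (not always all listed) in √10 steps. Nuclei were counted on 4× images after 5 days of treatment, and values are medians of duplicate plates.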

[2] = compound: C[C@@H](Oc1cc(-c2cnn(C3CCNCC3)c2)cnc1N)c1c(Cl)ccc(F)c1Cl [Crizotinib] + NC(=O)Nc1cc(-c2cccc(F)c2)sc1C(=O)N[C@H]1CCCNC1 [AZD7762] (partner 0.2 µM)
Summary of the method: as §1

[3] = compound: O=C(c1cc(Cc2n[nH]c(=O)c3ccccc23)ccc1F)N1CCN(C(=O)C2CC2)CC1 [Olaparib] + C[C@@H](Oc1cc(-c2cnn(C3CCNCC3)c2)cnc1N)c1c(Cl)ccc(F)c1Cl [Crizotinib] (partner 1 µM)
Summary of the method: as §1

[4] = compound: O=C(c1cc(Cc2n[nH]c(=O)c3ccccc23)ccc1F)N1CCN(C(=O)C2CC2)CC1 [Olaparib] + C[C@]1(O)C[C@@H](c2nc(-c3ccc4ccc(-c5ccccc5)nc4c3)c3c(N)nccn32)C1 [Linsitinib] (partner 1 µM)
Summary of the method: as §1

| Cell Line | relative viability ([1]; first compound 0.003162 µM) | relative viability ([1]; first compound 0.01 µM) | relative viability ([1]; first compound 0.03162 µM) | relative viability ([1]; first compound 0.1 µM) | relative viability ([2]; first compound 0.01 µM) | relative viability ([2]; first compound 0.03162 µM) | relative viability ([2]; first compound 0.1 µM) | relative viability ([2]; first compound 0.3162 µM) | relative viability ([2]; first compound 1 µM) | relative viability ([3]; first compound 0.08 µM) | relative viability ([3]; first compound 0.253 µM) | relative viability ([3]; first compound 2.53 µM) | relative viability ([3]; first compound 8 µM) | relative viability ([4]; first compound 0.08 µM) | relative viability ([4]; first compound 0.253 µM) | relative viability ([4]; first compound 2.53 µM) | relative viability ([4]; first compound 8 µM) | relative viability ([1]; first compound 0.001 µM) |
| --- | --- | --- | --- | --- | --- | --- | --- | --- | --- | --- | --- | --- | --- | --- | --- | --- | --- | --- |
| LK-2 | 0.237 | 0.16 | 0.262 | 0.209 | 0.533 | 0.293 | 0.341 | 0.204 | 0.398 | 0.177 | 0.181 | 0.192 | 0.186 | 0.588 | 0.691 | 0.549 | 0.485 | – |
| LOU-NH91 | 0.798 | 0.77 | 0.434 | 0.277 | 0.778 | 0.82 | 0.796 | 0.719 | 0.716 | 0.785 | 0.71 | 0.721 | 0.744 | 1.19 | 0.94 | 0.973 | 0.885 | 0.818 |
| LU99A | 0.667 | 0.584 | 0.291 | 0.16 | 0.276 | 0.362 | 0.34 | 0.32 | 0.407 | 0.522 | 0.495 | 0.427 | 0.42 | 0.587 | 0.515 | 0.414 | 0.333 | 0.585 |
| LXF-289 | 0.857 | 0.855 | 0.148 | 0.0565 | 1.05 | 1.11 | 1.16 | 1 | 1.19 | 0.907 | 0.799 | 0.889 | 0.875 | 1.05 | 0.899 | 1.02 | 0.968 | 0.797 |
| NCI-H23 | 0.612 | 0.587 | 0.153 | 0.134 | 0.281 | 0.323 | 0.297 | – | 0.261 | 0.673 | 0.444 | 0.492 | 0.274 | 0.572 | 0.572 | 0.45 | 0.299 | 0.637 |
| NCI-H322M | 0.864 | 0.938 | 0.795 | 0.252 | – | 0.575 | 0.609 | 0.547 | 0.584 | 1.03 | 0.803 | 0.994 | 0.902 | 0.819 | 0.879 | 0.979 | 0.84 | 0.935 |
| NCI-H358 | 0.802 | 0.525 | 0.104 | 0.144 | – | 0.533 | 0.469 | 0.458 | 0.492 | 0.606 | 0.541 | 0.651 | 0.518 | 0.842 | 0.608 | 0.668 | 0.592 | 0.712 |
| NCI-H441 | 1.15 | 0.362 | 0.1 | 0.127 | 0.998 | 1.03 | 1.12 | 1.09 | 1.21 | 0.677 | 0.634 | 0.733 | 0.719 | 0.658 | 0.528 | 0.544 | 0.485 | 0.7 |
